# Measured values: patent publication US20060069132A1, “Azolecarboxamide herbicides” (priority 2004, published 2006)
# Key:
# barnyardgrass [1] = experiment: Test A pre-/postemergence herbicide test; format: in vivo, Echinochloa crus-galli
# How it was run: (§1)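 Visual injury rating on a 0–100 scale (0 no effect, 100 complete control) versus untreated controls, about ten days after treatment in greenhouse. Pre: directed soil spray onto seeded sandy loam. Post: spray to runoff on plants 2–10 cm tall at one- to two-leaf stage.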
# large crabgrass [2] = experiment: Test A pre-/postemergence herbicide test; format: in vivo, Digitaria sanguinalis
# How it was run: as §1
# giant foxtail [3] = experiment: Test A pre-/postemergence herbicide test; format: in vivo, Setaria faberi
# How it was run: as §1
# morningglory [4] = experiment: Test A pre-/postemergence herbicide test; format: in vivo, Ipomoea spp.
# How it was run: as §1
# redroot pigweed = experiment: Test A pre-/postemergence herbicide test; format: in vivo, Amaranthus retroflexus
# How it was run: as §1
# velvetleaf [5] = experiment: Test A pre-/postemergence herbicide test; format: in vivo, Abutilon theophrasti
# How it was run: as §1
# barnyardgrass [6] = experiment: Test B pre-/postemergence herbicide test; format: in vivo, Echinochloa crus-galli; settings: for Barnyardgrass plant response rating: postemergence
# How it was run: (§2)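 Herbicidal effect was judged by eye on a 0–100 scale after plants stood 13 to 15 days in the greenhouse following pre- or postemergence treatment with surfactant-containing formulations.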
# Surinam grass = experiment: Test B pre-/postemergence herbicide test; format: in vivo, Urochloa decumbens; settings: for Surinam Grass plant response rating: postemergence
# How it was run: (§3)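 Plants compared with untreated controls 13–15 days post-treatment and given a visual 0–100 injury score. Applications: preemergence to seeds; postemergence at 1- to 4-leaf (2–18 cm); paddy species flooded, 2-leaf stage. Vehicle non-phytotoxic, surfactant included.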
# cocklebur = experiment: Test B pre-/postemergence herbicide test; format: in vivo, Xanthium strumarium; settings: for Cocklebur plant response rating: postemergence
# How it was run: as §2
# corn = experiment: Test B pre-/postemergence herbicide test; format: in vivo, Zea mays; settings: for Corn plant response rating: postemergence
# How it was run: as §3
# large crabgrass [7] = experiment: Test B pre-/postemergence herbicide test; format: in vivo, Digitaria sanguinalis; settings: for Crabgrass, Large plant response rating: postemergence
# How it was run: as §3
# giant foxtail [8] = experiment: Test B pre-/postemergence herbicide test; format: in vivo, Setaria faberi; settings: for Foxtail, Giant plant response rating: postemergence
# How it was run: as §3
# lambsquarters = experiment: Test B pre-/postemergence herbicide test; format: in vivo, Chenopodium album; settings: for Lambsquarters plant response rating: postemergence
# How it was run: as §3
# morningglory [9] = experiment: Test B pre-/postemergence herbicide test; format: in vivo, Ipomoea coccinea; settings: for Morningglory plant response rating: postemergence
# How it was run: as §2
# pigweed = experiment: Test B pre-/postemergence herbicide test; format: in vivo, Amaranthus retroflexus; settings: for Pigweed plant response rating: postemergence
# How it was run: as §3
# rice [10] = experiment: Test B pre-/postemergence herbicide test; format: in vivo, Oryza sativa; settings: 0 = no effect, 100 = complete control, preemergence
# How it was run: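 Greenhouse pot assay with simultaneous preemergence (treated seed) and postemergence (2–18 cm seedlings) applications of surfactant-containing, non-phytotoxic solvent formulations. Response scored visually 13–15 days later on a 0–100 scale, 100 meaning complete control.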
# velvetleaf [11] = experiment: Test B pre-/postemergence herbicide test; format: in vivo, Abutilon theophrasti; settings: for Velvetleaf plant response rating: postemergence
# How it was run: as §3
# blackgrass = experiment: Test B postemergence herbicide test; format: in vivo, Alopecurus myosuroides; settings: postemergence
# How it was run: (§4)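 Treated at 2-leaf (paddy) or 1–4-leaf, 2–18 cm (postemergence); greenhouse 13–15 d; visual score vs control, 0 none to 100 complete control; dash = not tested.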
# wheat = experiment: Test B postemergence herbicide test; format: in vivo, Triticum aestivum; set-up: key to Wheat plant response rating: 0 = no effect, 100 = complete control; settings: postemergence
# How it was run: (§5)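 Formulated test chemicals went onto postemergence plants measuring 2 to 18 cm, at one to four leaves. For the paddy assay, species had reached two leaves. Scoring took place 13–15 days later by eye, relative to untreated plants, using 0 for no effect up to 100 for full control.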
# wild oat = experiment: Test B postemergence herbicide test; format: in vivo, Avena fatua; settings: postemergence
# How it was run: as §5
# rice [12] = experiment: Test B flooded paddy test; format: in vivo, Oryza sativa; settings: 1000 g ai/ha, scale 0 to 100 (0 no effect, 100 complete control)
# How it was run: as §5
# [13] = test system: small flower umbrella sedge; experiment: Test B flooded paddy test; format: in vivo, Cyperus difformis; settings: 1000 g ai/ha, scale 0 to 100 (0 no effect, 100 complete control)
# How it was run: as §4
# ducksalad = experiment: Test B flooded paddy test; format: in vivo, Heteranthera limosa; settings: 1000 g ai/ha, scale 0 to 100 (0 no effect, 100 complete control)
# How it was run: as §4
# barnyardgrass [14] = experiment: Test B flooded paddy test; format: in vivo, Echinochloa crus-galli; settings: 1000 g ai/ha, scale 0 to 100 (0 no effect, 100 complete control)
# How it was run: as §4
# [15] = Postemergence, 500 g ai/ha, 0 to 100 scale, 0 no effect, 100 complete control
# [16] = Postemergence, 2000 g ai/ha, 0 to 100 scale, 0 no effect, 100 complete control
# [17] = Preemergence, 2000 g ai/ha, visual rating, 0 to 100 scale (0 no effect, 100 complete control)
# [18] = preemergence, 500 g ai/ha, visual injury, 0 to 100 scale (0 no effect, 100 complete control)
# [19] = 125 g ai/ha, 0 = no effect, 100 = complete control, preemergence
# [20] = 500 g ai/ha, visual rating, 0 = no effect, 100 = complete control, preemergence
# [21] = 125 g ai/ha, visual rating, scale 0 (no effect) to 100 (complete control)
# [22] = 500 g ai/ha, scale 0 to 100, 0 is no effect, 100 is complete control
structure (smiles),measurement,setting,value
C#CCNC(=O)c1ccc(F)c(NC(=O)c2cc(C(C)(C)C)nn2CC)n1 [Compound 279],Barnyardgrass plant response rating,barnyardgrass [1]; [15],20
same,"Plant response rating, Barnyardgrass",barnyardgrass [1]; [16],40
same,Barnyardgrass plant response rating,barnyardgrass [1]; [17],55
same,Barnyardgrass plant response rating,barnyardgrass [1]; [18],5
same,"Crabgrass, Large plant response rating",large crabgrass [2]; [15],10
same,"Plant response rating, Crabgrass, Large",large crabgrass [2]; [16],20
same,"Crabgrass, Large plant response rating",large crabgrass [2]; [17],70
same,"Crabgrass, Large plant response rating",large crabgrass [2]; [18],70
same,"Foxtail, Giant plant response rating",giant foxtail [3]; [15],10
same,"Plant response rating, Foxtail, Giant",giant foxtail [3]; [16],20
same,"Foxtail, Giant plant response rating",giant foxtail [3]; [17],60
same,"Foxtail, Giant plant response rating",giant foxtail [3]; [18],25
same,Morningglory plant response rating,morningglory [4]; [15],5
same,"Plant response rating, Morningglory",morningglory [4]; [16],5
same,Morningglory plant response rating,morningglory [4]; [17],20
same,Morningglory plant response rating,morningglory [4]; [18],10
same,Pigweed plant response rating,redroot pigweed; [15],70
same,"Plant response rating, Pigweed",redroot pigweed; [16],60
same,Pigweed plant response rating,redroot pigweed; [17],100
same,Pigweed plant response rating,redroot pigweed; [18],95
same,Velvetleaf plant response rating,velvetleaf [5]; [15],20
same,"Plant response rating, Velvetleaf",velvetleaf [5]; [16],20
same,Velvetleaf plant response rating,velvetleaf [5]; [17],30
same,Velvetleaf plant response rating,velvetleaf [5]; [18],10
same,Barnyardgrass plant response rating (0 to 100 scale),barnyardgrass [6]; [19],20
same,"Plant response rating, Barnyardgrass",barnyardgrass [6]; [20],40
same,Barnyardgrass plant response rating,barnyardgrass [6]; [21],0
same,Barnyardgrass plant response rating,barnyardgrass [6]; [22],10
same,Surinam Grass plant response rating (0 to 100 scale),Surinam grass; [19],0
same,"Plant response rating, Surinam Grass",Surinam grass; [20],40
same,Surinam Grass plant response rating,Surinam grass; [21],10
same,Surinam Grass plant response rating,Surinam grass; [22],10
same,Cocklebur plant response rating (0 to 100 scale),cocklebur; [19],0
same,"Plant response rating, Cocklebur",cocklebur; [20],0
same,Cocklebur plant response rating,cocklebur; [21],0
same,Cocklebur plant response rating,cocklebur; [22],20
same,Corn plant response rating (0 to 100 scale),corn; [19],0
same,"Plant response rating, Corn",corn; [20],0
same,Corn plant response rating,corn; [21],10
same,Corn plant response rating,corn; [22],10
same,"Crabgrass, Large plant response rating (0 to 100 scale)",large crabgrass [7]; [19],10
same,"Plant response rating, Crabgrass, Large",large crabgrass [7]; [20],80
same,"Crabgrass, Large plant response rating",large crabgrass [7]; [21],0
same,"Crabgrass, Large plant response rating",large crabgrass [7]; [22],10
same,"Foxtail, Giant plant response rating (0 to 100 scale)",giant foxtail [8]; [19],10
same,"Plant response rating, Foxtail, Giant",giant foxtail [8]; [20],30
same,"Foxtail, Giant plant response rating",giant foxtail [8]; [21],0
same,"Foxtail, Giant plant response rating",giant foxtail [8]; [22],0
same,Lambsquarters plant response rating (0 to 100 scale),lambsquarters; [19],100
same,"Plant response rating, Lambsquarters",lambsquarters; [20],100
same,Lambsquarters plant response rating,lambsquarters; [21],10
same,Lambsquarters plant response rating,lambsquarters; [22],20
same,Morningglory plant response rating (0 to 100 scale),morningglory [9]; [19],0
same,"Plant response rating, Morningglory",morningglory [9]; [20],0
same,Morningglory plant response rating,morningglory [9]; [21],0
same,Morningglory plant response rating,morningglory [9]; [22],20
same,Pigweed plant response rating (0 to 100 scale),pigweed; [19],90
same,"Plant response rating, Pigweed",pigweed; [20],100
same,Pigweed plant response rating,pigweed; [21],30
same,Pigweed plant response rating,pigweed; [22],30
same,Rice plant response rating (0 to 100 scale),rice [10]; 125 g ai/ha,20
same,"Plant response rating, Rice","rice [10]; 500 g ai/ha, visual rating",50
same,Velvetleaf plant response rating (0 to 100 scale),velvetleaf [11]; [19],0
same,"Plant response rating, Velvetleaf",velvetleaf [11]; [20],20
same,Velvetleaf plant response rating,velvetleaf [11]; [21],10
same,Velvetleaf plant response rating,velvetleaf [11]; [22],10
same,Blackgrass plant response rating,blackgrass; [21],10
same,Blackgrass plant response rating,blackgrass; [22],30
same,Wheat plant response rating,wheat; [21],30
same,Wheat plant response rating,wheat; [22],30
same,"Oat, Wild plant response rating",wild oat; [21],20
same,"Oat, Wild plant response rating",wild oat; [22],20
same,Rice plant response rating,rice [12],40
same,"Sedge, Umbrella plant response rating",[13],60
same,Ducksalad plant response rating,ducksalad,60
same,Barnyardgrass plant response rating,barnyardgrass [14],10
